Laboratory results published in ChEMBL document CHEMBL1147576, “Synthesis and evaluation of S-4-(3-thienyl)phenyl-alpha-methylacetic acid” (Bioorg Med Chem Lett, 2004).

Molecular target: T1, Prostaglandin G/H synthase 1 (Ovis aries, UniProt P05979)
T1 sequence (P05979 whole entry): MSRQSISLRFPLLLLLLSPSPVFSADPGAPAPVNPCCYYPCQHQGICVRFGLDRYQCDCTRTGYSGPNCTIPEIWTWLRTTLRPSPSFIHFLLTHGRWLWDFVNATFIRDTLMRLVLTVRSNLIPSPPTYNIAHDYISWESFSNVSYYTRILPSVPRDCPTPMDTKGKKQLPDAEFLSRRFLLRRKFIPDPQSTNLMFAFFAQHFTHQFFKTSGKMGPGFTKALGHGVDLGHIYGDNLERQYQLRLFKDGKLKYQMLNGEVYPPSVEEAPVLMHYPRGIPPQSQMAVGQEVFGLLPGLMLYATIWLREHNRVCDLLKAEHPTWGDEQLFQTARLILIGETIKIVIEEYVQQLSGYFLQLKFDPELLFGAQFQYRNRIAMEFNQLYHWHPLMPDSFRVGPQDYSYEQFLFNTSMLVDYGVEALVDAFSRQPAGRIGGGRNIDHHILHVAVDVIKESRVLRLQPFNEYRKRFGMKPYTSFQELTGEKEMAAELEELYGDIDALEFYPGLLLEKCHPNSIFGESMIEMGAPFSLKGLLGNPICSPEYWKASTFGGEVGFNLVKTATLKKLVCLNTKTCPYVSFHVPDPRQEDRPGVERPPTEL
Assay: In vitro inhibitory concentration against ram seminal vesicle prostaglandin G/H synthase 1
Assay type: tissue-based

| IC50 [µM] | SMILES |
| --- | --- |
| 45.2 | C[C@H](C(=O)O)c1ccc(-c2ccsc2)cc1 |

Test system: Rattus norvegicus
Assay: Effective dose for Anti-inflammatory activity was determined by carrageenan induced rat hind paw edema model
Assay type: functional

| SMILES | ED50 [mg/kg] |
| --- | --- |
| COc1ccc2cc(C(C)C(=O)O)ccc2c1 (configuration not stated) | 2.35 |
| C[C@H](C(=O)O)c1ccc(-c2ccsc2)cc1 | 1.85 |
| CC(C(=O)O)c1ccc(-c2ccsc2)cc1 (configuration not stated) [ATLIPROFEN] | 5.74 |
| CC(C)Cc1ccc([C@H](C)C(=O)O)cc1 [DEXIBUPROFEN] | 7.08 |
| CC(C)Cc1ccc(C(C)C(=O)O)cc1 (configuration not stated) [IBUPROFEN] | 33.2 |
| COc1ccc2cc([C@H](C)C(=O)O)ccc2c1 [NAPROXEN] | 0.99 |
